Assay results reported in publication PMC3433414, “Oral Administration of the Pimelic Diphenylamide HDAC Inhibitor HDACi 4b Is Unsuitable for Chronic Inhibition of HDAC Activity in the CNS In Vivo” (PLoS ONE, 2012).

Key:
[1] = Simulated gastric fluid stability; assay type: in vitro ADME
Method: Simulated gastric fluid (SGF), pH 1.2, was prepared containing 2 g/L sodium chloride, 3.2 g/L of pepsin, 0.7% (v/v) HCl. Gastric buffer, pH 1.2, was also prepared containing 2 g/L sodium chloride and 0.7% (v/v) HCl. Test compound (10 µM) was added to both fluids and samples were mixed at room temperature on an orbital shaker. At each time-point (0, 2 and 4 h) 50 µL of sample was added to 150 µL DMSO, mixed and analysed immediately. Samples were analysed by LC-UV (λ = 254 nm. The instrument responses (i.e. chromatographic peak areas) were referenced to the zero time-point samples (as 100%) in order to determine the percentage of compound remaining at each time-point.

human recombinant HDAC1 = target: T1, human recombinant HDAC1 (Homo sapiens, UniProt Q13547); assay: Two-step fluorogenic deacetylase assay, recombinant HDAC1; assay type: biochemical
T1 construct: purified recombinant human full length HDAC1 (cat# 50051); purchased BPS Bioscience (San Diego, CA) 50051
T1 sequence (Q13547 whole entry): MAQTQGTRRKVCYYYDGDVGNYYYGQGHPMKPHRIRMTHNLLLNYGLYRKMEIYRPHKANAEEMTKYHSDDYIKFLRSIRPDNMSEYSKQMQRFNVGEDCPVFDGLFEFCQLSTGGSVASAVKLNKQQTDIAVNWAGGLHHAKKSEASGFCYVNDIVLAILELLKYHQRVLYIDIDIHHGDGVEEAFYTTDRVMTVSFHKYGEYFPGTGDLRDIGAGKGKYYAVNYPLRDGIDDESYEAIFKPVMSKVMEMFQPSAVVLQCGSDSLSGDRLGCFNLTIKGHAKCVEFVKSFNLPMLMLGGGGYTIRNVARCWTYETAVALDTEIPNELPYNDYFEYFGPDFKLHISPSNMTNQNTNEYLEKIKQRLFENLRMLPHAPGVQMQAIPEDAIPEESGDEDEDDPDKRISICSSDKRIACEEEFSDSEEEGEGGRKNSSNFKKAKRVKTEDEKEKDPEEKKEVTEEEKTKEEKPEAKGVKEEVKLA
Source text: (§1) To assess the biochemical and cellular potency of 4b and its conversion products/metabolites, we utilized the two-step fluorogenic assay which measures the HDAC-mediated catalytic conversion of synthetic acetylated lysine substrates. In brief, on deacetylation of the substrates by HDAC activity, a protease site is unmasked which allows subsequent trypsin-mediated cleavage and release of the highly flourescent AMC molecules in a subsequent step of the assay. The substrates used were Lys_Ac_AMC (Bachem I-1875) for HDAC3 and (Ac)Arg-Gly-Lys(Ac) (Bachem I-1925) for HDAC1 and HDAC2. […] However, the relatively labile and sterically more demanding trifluoracetyl group is readily hydrolyzed by the catalytically less avid Class IIa enzymes, allowing measurement of Class IIa activity using the 2-step fluorogenic assay. […]
(§2) For evaluation of the class selectivity of the compounds, we assessed inhibition against purified recombinant human full length HDAC1 (cat# 50051), HDAC2 (cat# 50052), HDAC3-NcoR2 (cat# 50003) and HDAC8 (cat# 50008): as representative of Class I activity; catalytic domain HDAC4(αα 648–1057), HDAC5 (αα 657–1123; cat # 50005), HDAC7 (αα 518-end; cat # 50007) and HDAC9 (αα 604–1066; cat # 50009) activity: representing all Class IIa activity; and full length HDAC6 (cat#50006): representing Class IIb activity. […]

HDAC5 = target: T2, HDAC5 (Homo sapiens, UniProt Q9UQL6); assay: Two-step fluorogenic deacetylase assay, recombinant HDAC5; assay type: biochemical; conditions: up to 50 µM
T2 construct: HDAC5 (αα 657–1123; cat # 50005); purchased BPS Bioscience (San Diego, CA) 50005
T2 sequence (Q9UQL6 656-1122): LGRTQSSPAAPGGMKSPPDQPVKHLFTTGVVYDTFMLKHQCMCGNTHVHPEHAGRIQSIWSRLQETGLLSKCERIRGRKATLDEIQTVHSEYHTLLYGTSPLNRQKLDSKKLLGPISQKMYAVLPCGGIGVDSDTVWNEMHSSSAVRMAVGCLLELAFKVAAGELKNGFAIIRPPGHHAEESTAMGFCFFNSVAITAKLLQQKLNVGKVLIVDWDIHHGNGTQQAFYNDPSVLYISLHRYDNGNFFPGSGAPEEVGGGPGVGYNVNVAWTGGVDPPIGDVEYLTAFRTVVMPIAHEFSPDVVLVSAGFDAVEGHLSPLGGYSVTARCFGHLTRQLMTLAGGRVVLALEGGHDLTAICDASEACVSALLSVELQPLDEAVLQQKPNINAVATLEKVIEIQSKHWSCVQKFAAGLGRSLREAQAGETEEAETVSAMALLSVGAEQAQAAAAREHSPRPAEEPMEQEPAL
Source text: as §1, §2

[2] = tested on: histone acetylation in mouse brain; assay: Histone acetylation in brain tissue (central pharmacodynamics); conditions: 150 mg/kg po bid, five consecutive days; 1 h post last dose
Method: Cortical tissue from the mice was assessed using specific antibodies for increases in acetylation of specific lysine residues on Histones H3 (H3K4, H3K9, H3K14) and H4 (H4K5) as well as global acetylation of H3 (Ac-H3) and H4 (Ac-H4). The acetylation level was normalized to total H3 and H4 expression level. The samples from the rest of the brain were analyzed for terminal 4b levels at the time of sacrifice. […] Mouse brains were harvested, dissected, immediately frozen in liquid nitrogen and stored at −80°C. Mouse brain tissue was homogenized (polytron homogenizer, 20 s) in 2 volumes of histone extraction buffer (1×PBS, 5% Triton X-100 (v/v), 3 mM DTT, 1 mM orthovanadate, 5 mM NaF, 1 mM PMSF, 5 mM Na Butyrate, Roche complete protease inhibitor tablet) and centrifuged at 900 g for 8 min at 4°C. The resulting pellet was washed twice in 1 ml of histone extraction buffer before being re-suspended in 2–3 volumes of 0.2 M HCl. Samples were then vortexed briefly and left to shake vigorously for 3 h at 4°C using a VXR Vibrax 1.5 ml polypropylene tube shaker (IKA). After shaking, samples were centrifuged at 900 g for 8 min at 4°C and the resulting supernatant was retained and neutralized with 0.2 volumes of 1 M NaOH.

[3] = Partition into erythrocytes; assay type: in vitro ADME; conditions: mouse
[4] = Stability in serum albumin; assay type: in vitro ADME
Method: Incubations of test compound (5 µM initial concentration, n = 2) were carried out with pooled mouse plasma or BSA (45 mg/mL in 0.1 M phosphate buffered saline). The incubations were performed at 37°C. Samples (50 µL) were obtained from the incubation at 0, 10, 30, 120, 240, 360 and 1440 min, and added to 150 µL of acetonitrile containing carbamazepine as analytical internal standard to terminate the reaction. Samples were centrifuged and the supernatant fractions analysed by LC-MS/MS.

HDAC9 = target: T3, HDAC9 (Homo sapiens, UniProt Q9UKV0); assay: Two-step fluorogenic deacetylase assay, recombinant HDAC9; assay type: biochemical; conditions: up to 50 µM
T3 construct: HDAC9 (αα 604–1066; cat # 50009); purchased BPS Bioscience (San Diego, CA) 50009
T3 sequence (Q9UKV0 604-1066 isoform Q9UKV0-5): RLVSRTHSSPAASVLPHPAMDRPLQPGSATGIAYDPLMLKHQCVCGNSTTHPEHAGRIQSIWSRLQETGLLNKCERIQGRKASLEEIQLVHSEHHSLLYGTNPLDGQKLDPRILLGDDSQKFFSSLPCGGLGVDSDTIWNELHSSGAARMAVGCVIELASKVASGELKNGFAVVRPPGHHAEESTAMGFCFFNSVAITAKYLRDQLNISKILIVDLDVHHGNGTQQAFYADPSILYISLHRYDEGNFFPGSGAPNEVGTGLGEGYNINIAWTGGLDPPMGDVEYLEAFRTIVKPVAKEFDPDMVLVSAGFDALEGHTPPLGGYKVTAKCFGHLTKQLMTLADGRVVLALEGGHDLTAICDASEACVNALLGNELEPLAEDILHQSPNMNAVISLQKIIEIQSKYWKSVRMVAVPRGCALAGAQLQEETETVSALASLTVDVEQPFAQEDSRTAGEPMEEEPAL
Source text: as §1, §2

human recombinant HDAC8 = target: T4, human recombinant HDAC8 (Homo sapiens, UniProt Q9BY41); assay: Two-step fluorogenic deacetylase assay, recombinant HDAC8; assay type: biochemical; conditions: up to 50 µM
T4 construct: purified recombinant human full length HDAC1 (cat# 50051), HDAC2 (cat# 50052), HDAC3-NcoR2 (cat# 50003) and HDAC8 (cat# 50008); purchased BPS Bioscience (San Diego, CA) 50008
T4 sequence (Q9BY41 whole entry): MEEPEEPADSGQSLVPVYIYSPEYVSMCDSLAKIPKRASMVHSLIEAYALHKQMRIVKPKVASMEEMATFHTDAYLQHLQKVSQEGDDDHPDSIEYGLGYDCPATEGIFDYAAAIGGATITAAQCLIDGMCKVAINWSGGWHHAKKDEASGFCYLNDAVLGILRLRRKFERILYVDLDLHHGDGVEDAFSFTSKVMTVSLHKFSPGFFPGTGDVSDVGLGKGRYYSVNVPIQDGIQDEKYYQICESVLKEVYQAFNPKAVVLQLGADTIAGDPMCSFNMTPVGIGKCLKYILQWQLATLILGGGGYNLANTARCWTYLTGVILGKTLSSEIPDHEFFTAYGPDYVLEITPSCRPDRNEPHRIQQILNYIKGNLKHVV
Source text: as §1, §2

## Nc1ccccc1NC(=O)CCCCCC(=O)Nc1ccccc1 [Compound 4b]
[1]; in 4 h
  turnover in simulated gastric fluid: 5%
[1]; simulated gastric fluid (SGF), pH 1.2
  half-life at 10 µM: > 10 h
Human recombinant HDAC1
  IC50: 1.51 µM
HDAC5
  activity against HDAC5: No activity
[2]
  histone acetylation in cortical tissue (H3K4, H3K9, H3K14, H4K5, Ac-H3, Ac-H4): failed to enhance histone acetylation
[3]
  concentrations in whole blood relative to plasma: approximately 4 times
[3]; whole blood, data not shown
  blood plasma ratio: ~3
[4]
  stability in serum albumin incubations: stable
HDAC9
  activity against HDAC9: No activity
Human recombinant HDAC8
  activity against HDAC8: No activity
